Measured values: US10589001B2, “Pharmaceutical formulation for use in spinal fusion” (Kuros Biosurgery AG, priority 2011, dated 2020)

Test system: Crossbred Suffolk Sheep
Test: Sheep transforaminal lumbar interbody fusion model
Assay type: in vivo
Description: As in example 1, PTH (i.e. TGplPTH1-34) was tested alone or with granular material. The same materials were used as in example 1, and the preparation of the product followed the same protocol as for example 1, but in this study the concentrations of TGplPTH1-34 ranged from 0.2 mg/mL to 0.7 mg/mL of the fibrin matrix. The treatment was placed only inside the interbody cage. No additional test material was placed around the cage, as in example 1.
A total of 28 Crossbred Suffolk Sheep (Castrated Weathers) with an average weight of 57 kg and age ranging from 3 to 6 years of age were chosen as experimental animals. The animals were divided into 7 groups. One group (the positive control group) was treated with autograft and the remaining groups were treated with a fibrin matrix with or without granular material, containing different concentrations of TGplPTH1-34. Groups were followed for 16 weeks, after which the animals were sacrificed. Animal care and use was conducted in accordance with federal regulations as outlined in the Animal Welfare Act. Surgery, perioperative care, housing, sanitation practices, husbandry, and veterinary care followed the recommendations of the NIH Guide for the Care and Use of Laboratory Animals (HHS, NIH Pub. No. 85-23, 1985). Animal care personnel were qualified, through training and experience, to perform required duties. […]

With `CC[C@H](C)[C@H](NC(=O)[C@H](CCC(=O)O)NC(=O)[C@H](CO)NC(=O)[C@@H](NC(=O)[C@H](CO)NC(=O)[C@H](CCCNC(=N)N)NC(=O)[C@H](CC(N)=O)NC(=O)[C@H](CCCCN)NC(=O)[C@H](Cc1ccc(O)cc1)NC(=O)[C@H](CC(C)C)NC(=O)[C@@H]1CCCN1C(=O)[C@H](CO)NC(=O)[C@@H](NC(=O)[C@H](CCC(N)=O)NC(=O)[C@H](CCC(=O)O)NC(=O)[C@H](CCC(N)=O)NC(=O)[C@@H](N)CC(N)=O)C(C)C)C(C)C)C(=O)N[C@@H](CCC(N)=O)C(=O)N[C@@H](CC(C)C)C(=O)N[C@@H](CCSC)C(=O)N[C@@H](Cc1c[nH]cn1)C(=O)N[C@@H](CC(N)=O)C(=O)N[C@@H](CC(C)C)C(=O)NCC(=O)N[C@@H](CCCCN)C(=O)N[C@@H](Cc1c[nH]cn1)C(=O)N[C@@H](CC(C)C)C(=O)N[C@@H](CC(N)=O)C(=O)N[C@@H](CO)C(=O)N[C@@H](CCSC)C(=O)N[C@@H](CCC(=O)O)C(=O)N[C@@H](CCCNC(=N)N)C(=O)N[C@H](C(=O)N[C@@H](CCC(=O)O)C(=O)N[C@@H](Cc1c[nH]c2ccccc12)C(=O)N[C@@H](CC(C)C)C(=O)N[C@@H](CCCNC(=N)N)C(=O)N[C@@H](CCCCN)C(=O)N[C@@H](CCCCN)C(=O)N[C@@H](CC(C)C)C(=O)N[C@@H](CCC(N)=O)C(=O)N[C@@H](CC(=O)O)C(=O)N[C@H](C(=O)N[C@@H](Cc1c[nH]cn1)C(=O)N[C@@H](CC(N)=O)C(=O)N[C@@H](Cc1ccccc1)C(=O)O)C(C)C)C(C)C` [TGplPTH1-34] the “toxicity during the treatment period” value (any of the doses (0.2-0.7 mg/mL) or formulations, 16 weeks) was “No toxicity was observed” and the histopathologic review (in vivo) was “no signs of osseous pathology”.
